Where two headings read alike, the source gives them in different places.

These results are taken from patent publication US10793568B2, “Hormone receptor modulators for treating metabolic conditions and disorders” (ARDELYX, INC., priority 2016, dated 2020).

Experiment [1] deals with ligand binding domain of human FXR (Homo sapiens (Human), UniProt Q96RI1). Put plainly: FXR ligand binding assay (LanthaScreen TR-FRET, SRC2-2 peptide recruitment). The following applies: for pEC50: -log EC50, concentration required to produce 50% activation; for Emax: read-out: % Efficacy.
ligand binding domain of human FXR, sequence (Q96RI1 262-486): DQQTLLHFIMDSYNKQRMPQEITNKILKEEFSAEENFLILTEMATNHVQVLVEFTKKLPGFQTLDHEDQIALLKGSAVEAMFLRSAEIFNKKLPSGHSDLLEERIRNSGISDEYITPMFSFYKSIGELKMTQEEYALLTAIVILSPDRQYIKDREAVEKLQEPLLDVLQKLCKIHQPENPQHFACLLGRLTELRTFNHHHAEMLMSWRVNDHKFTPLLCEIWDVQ
For experiment [2], the target named is human Farnesoid X receptor ligand-binding domain/Gal4 DNA binding domain chimera (Homo sapiens (Human), UniProt Q96RI1). Put plainly: Cell-based assay of FXR activation (FXR-UAS-bla HEK 293T beta-lactamase reporter). The following applies: cellular FXR beta-lactamase reporter assay; for Emax: HEK-293T, read-out: % Efficacy. In short, it runs like this:
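Readout is cleavage of the CCF4 FRET substrate (409 nm excitation, blue 447 nm signal) by beta-lactamase, expressed under UAS control after a Gal4–human FXR LBD chimera is activated in HEK 293T cells. Compounds were added as 3-fold dilutions for 16 h at 37 °C in 2% charcoal-stripped FBS medium. Curves were fit to a 3-parameter logistic equation to give pEC50, with % activation relative to GW4064.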

Where [3] appears, read: extent of activation relative to GW4064.
The mark [4] stands for this setting: FXR-UAS-bla HEK 293T cells, 16 h, pEC50 = -log EC50.

human Farnesoid X receptor ligand-binding domain/Gal4 DNA binding domain chimera, sequence (Q96RI1 262-486, change not shown): as the sequence (Q96RI1 262-486) above
human Farnesoid X receptor ligand-binding domain/Gal4 DNA binding domain chimera, sequence (P04386 1-147 partner): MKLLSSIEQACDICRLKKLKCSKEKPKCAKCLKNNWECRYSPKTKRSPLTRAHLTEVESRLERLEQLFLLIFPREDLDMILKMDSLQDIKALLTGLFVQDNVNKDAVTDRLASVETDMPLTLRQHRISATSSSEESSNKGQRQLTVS

For `Cc1cccc(Cl)c1-c1noc(C2CC2)c1CO[C@@H]1C[C@@H]2C[C@H]1CN2c1nc2c(C3CCOCC3)cc(C(=O)O)cc2s1` [Compound I-271, 2-((1S,4S,5R)-5-((3-(2-chloro-6-methylphenyl)-5-cyclopropylisoxazol-4-yl)methoxy)-2-azabicyclo[2.2.1]heptan-2-yl)-4-(tetrahydro-2H-pyran-4-yl)benzo[d]thiazole-6-carboxylic acid], the negative logarithm of the EC50 (pEC50) in experiment [1] came to 8.6. Moreover, the results for the Emax in experiment [1] (setting [3]) and in experiment [2] (setting [3]) were 132% and 108%, respectively. Moreover, in experiment [2] (setting [4]), it took 0.398 nM to reach a half-maximal effect (EC50).
For `O=C(NS(=O)(=O)CCOC(=O)C1CC1)c1ccc(N2C[C@@H]3C[C@H]2C[C@H]3OCc2c(-c3c(Cl)cccc3Cl)noc2C2CC2)cc1` [Compound I-212, 2-[({4-[(1S,4S,5R)-5-{[5-cyclopropyl-3-(2,6-dichlorophenyl)-1,2-oxazol-4-yl]methoxy}-2-azabicyclo[2.2.1]heptan-2-yl]phenyl}formamido)sulfonyl]ethyl Cyclopropanecarboxylate], in that order: 9.2, 136%, 107% and 2.51 nM.
Consider `O=C(O)C1(c2ccc(N3C[C@@H]4C[C@H]3C[C@H]4OCc3c(-c4c(Cl)cccc4Cl)noc3C3CC3)cc2)CC1` [Compound I-149, 1-{4-[(1S,4S,5R)-5-{[5-cyclopropyl-3-(2,6-dichlorophenyl)-1,2-oxazol-4-yl]methoxy}-2-azabicyclo[2.2.1]heptan-2-yl]phenyl}cyclopropane-1-carboxylic Acid], for which the pEC50 in experiment [1] was 8.2. For the same compound, the results for the Emax in experiment [1] (setting [3]) and in experiment [2] (setting [3]) were 106% and 101%, respectively. The midpoint of the response in experiment [2] (setting [4]), the EC50, lay at 63.1 nM.
In experiment [1], `O=C(O)c1cc(F)c2nc(N3C[C@H]4C[C@@H]3C[C@H]4OCc3c(-c4c(Cl)cccc4Cl)noc3C3CC3)sc2c1` [Compound I-41, 2-[(1R,4R,5R)-5-{[5-cyclopropyl-3-(2,6-dichlorophenyl)-1,2-oxazol-4-yl]methoxy}-2-azabicyclo[2.2.1]heptan-2-yl]-4-fluoro-1,3-benzothiazole-6-carboxylic Acid] had a pEC50 greater than 4.5. In addition, the Emax in experiment [2] (setting [3]) was 40%. The compound further had an EC50 in experiment [2] (setting [4]) of 2510 nM.
With `COc1cc(N2C[C@@H]3C[C@H]2C[C@H]3OCc2c(-c3c(Cl)cccc3Cl)noc2C2CC2)ccc1C(=O)O` [Compound I-112, 4-((1S,4S,5R)-5-((5-cyclopropyl-3-(2,6-dichlorophenyl)isoxazol-4-yl)methoxy)-2-azabicyclo[2.2.1]heptan-2-yl)-2-methoxybenzoic acid], the pEC50 in experiment [1] is listed as 9.4. Moreover, the Emax in experiment [1] (setting [3]) came to 116%; in experiment [2] (setting [3]), 100%. The same compound showed an EC50 in experiment [2] (setting [4]) of 5.01 nM.
`Cc1cc(C(=O)NCCP(=O)(O)O)ccc1N1C[C@@H]2C[C@H]1C[C@H]2OCc1c(-c2c(Cl)cccc2Cl)noc1C1CC1` [Compound I-173, [2-({4-[(1S,4S,5R)-5-{[5-cyclopropyl-3-(2,6-dichlorophenyl)-1,2-oxazol-4-yl]methoxy}-2-azabicyclo[2.2.1]heptan-2-yl]-3-methylphenyl}formamido)ethyl]phosphonic Acid]: in experiment [1], the pEC50 is listed as 9.2 and the Emax was found to be 144%. Besides, the Emax in experiment [2] (setting [3]) came out at 114%. Besides, the concentration giving a half-maximal response (EC50) in experiment [2] (setting [4]) was 100 nM.
`NS(=O)(=O)[C@@H]1CCC[C@H]1OC(=O)c1ccc(N2C(=O)[C@@H]3C[C@H]2C[C@H]3OCc2c(-c3c(Cl)cccc3Cl)noc2C2CC2)cc1F` [Compound I-347, (1R,2R)-2-sulfamoylcyclopentyl 4-[(1S,4R,5R)-5-{[5-cyclopropyl-3-(2,6-dichlorophenyl)-1,2-oxazol-4-yl]methoxy}-3-oxo-2-azabicyclo[2.2.1]heptan-2-yl]-2-fluorobenzoate] had a pEC50 in experiment [1] of 8.5. The Emax in experiment [1] (setting [3]) stood at 203%; in experiment [2] (setting [3]) it was 135%. This compound gave a concentration for a half-maximal effect (EC50) in experiment [2] (setting [4]) of 1 nM.
On to `O=C(O)c1ccc(N2C[C@@H]3C[C@H]2C[C@H]3OCc2c(-c3c(Cl)cccc3Cl)noc2C2CC2)cc1` [Compound I-52, 4-[(1S,4S,5R)-5-[[5-cyclopropyl-3-(2,6-dichlorophenyl)-1,2-oxazol-4-yl]methoxy]-2-azabicyclo[2.2.1]heptan-2-yl]benzoic acid], for which the pEC50 in experiment [1] came to 8.8. Also, the Emax in experiment [1] (setting [3]) worked out at 148%; in experiment [2] (setting [3]), 111%. In experiment [2] (setting [4]), this compound showed an EC50 of 1 nM.
The corresponding values for `Cc1cccc(Cl)c1-c1noc(C2CC2)c1CO[C@@H]1C[C@@H]2C[C@H]1CN2c1ccc(CCC(=O)NS(C)(=O)=O)cc1F` [Compound I-241, 3-(4-((1S,4S,5R)-5-((3-(2-chloro-6-methylphenyl)-5-cyclopropylisoxazol-4-yl)methoxy)-2-azabicyclo[2.2.1]heptan-2-yl)-3-fluorophenyl)-N-(methylsulfonyl)propanamide] are 8, 176%, 98% and 10 nM.
Turning to `CCCS(=O)(=O)NC(=O)c1ccc(N2C[C@@H]3C[C@H]2C[C@H]3OCc2c(-c3c(Cl)cccc3Cl)noc2C2CC2)c(F)c1` [Compound I-61, 4-[(1S,4S,5R)-5-{[5-cyclopropyl-3-(2,6-dichlorophenyl)-1,2-oxazol-4-yl]methoxy}-2-azabicyclo[2.2.1]heptan-2-yl]-3-fluoro-N-(propane-1-sulfonyl)benzamide], the negative logarithm of the EC50 (pEC50) in experiment [1] is on record as 8.7. The Emax stood at 174% in experiment [1] (setting [3]) and 106% in experiment [2] (setting [3]). The compound also gave an EC50 in experiment [2] (setting [4]) of 0.0631 nM.
As for `O=C(O)c1ccc(N2C(=O)[C@@H]3C[C@H]2C[C@H]3OCc2c(-c3c(Cl)cccc3Cl)noc2C2CC2)cc1` [Compound I-244, 4-[(1S,4R,5R)-5-{[5-cyclopropyl-3-(2,6-dichlorophenyl)-1,2-oxazol-4-yl]methoxy}-3-oxo-2-azabicyclo[2.2.1]heptan-2-yl]benzoic Acid], the pEC50 in experiment [1] turned out to be 8.4. In addition, the Emax in experiment [1] (setting [3]) worked out at 130%; in experiment [2] (setting [3]) it was 102%. Besides, the EC50 in experiment [2] (setting [4]) is 2 nM.
For `O=C(O)c1cc(F)c2nc(N3C[C@@H]4C[C@H]3C[C@H]4OCc3c(-c4c(Cl)cccc4Cl)noc3C3(F)CC3)sc2c1` [Compound I-24, 2-[(1S,4S,5R)-5-{[3-(2,6-dichlorophenyl)-5-(1-fluorocyclopropyl)-1,2-oxazol-4-yl]methoxy}-2-azabicyclo[2.2.1]heptan-2-yl]-4-fluoro-1,3-benzothiazole-6-carboxylic Acid], in that order: 7.9, 180%, 102% and 0.631 nM.
Regarding `O=C(NS(=O)(=O)[C@H]1CC[C@@H](O)CC1)c1ccc(N2C[C@@H]3C[C@H]2C[C@H]3OCc2c(-c3c(Cl)cccc3Cl)noc2C2CC2)cc1` [Compound I-220, 4-[(1S,4S,5R)-5-{[5-cyclopropyl-3-(2,6-dichlorophenyl)-1,2-oxazol-4-yl]methoxy}-2-azabicyclo[2.2.1]heptan-2-yl]-N-{[(1s,4s)-4-hydroxycyclohexyl]sulfonyl}benzamide], the pEC50 worked out at 8.7 in experiment [1] and 9.6 in experiment [2] (setting [4]). The “% Efficacy” value in experiment [1] (setting [3]) is recorded as 154%; in experiment [2] (setting [3]), 108%.
In experiment [1], `O=C(CCc1ccc(N2C[C@@H]3C[C@H]2C[C@H]3OCc2c(-c3c(Cl)cccc3Cl)noc2C2CC2)c(F)c1)NS(=O)(=O)C1CC1` [Compound I-237, 3-(4-((1S,4S,5R)-5-((5-cyclopropyl-3-(2,6-dichlorophenyl)isoxazol-4-yl)methoxy)-2-azabicyclo[2.2.1]heptan-2-yl)-3-fluorophenyl)-N-(cyclopropylsulfonyl)propanamide] returned a pEC50 of 8.7. For the same compound, the Emax turned out to be 162% in experiment [1] (setting [3]) and 94% in experiment [2] (setting [3]). This compound also gave an EC50 in experiment [2] (setting [4]) of 2.51 nM.
For `COC(=O)c1cc(F)c2nc(N3C[C@@H]4C[C@H]3C[C@@H]4OCc3c(-c4c(Cl)cccc4Cl)noc3C3CC3)sc2c1` [Compound I-36, Methyl 2-[(1S,4S,5S)-5-{[5-cyclopropyl-3-(2,6-dichlorophenyl)-1,2-oxazol-4-yl]methoxy}-2-azabicyclo[2.2.1]heptan-2-yl]-4-fluoro-1,3-benzothiazole-6-carboxylate], in experiment [1], the pEC50 is 5.4. In addition, the Emax came out at 86% in experiment [1] (setting [3]) and 50% in experiment [2] (setting [3]). The compound also showed a 50% effective concentration (EC50) in experiment [2] (setting [4]) of 6310 nM.
For `Cc1cc(N2C[C@@H]3C[C@H]2C[C@H]3OCc2c(-c3c(Cl)cccc3Cl)noc2C2CC2)ccc1C(=O)O` [Compound I-111, 4-((1S,4S,5R)-5-((5-cyclopropyl-3-(2,6-dichlorophenyl)isoxazol-4-yl)methoxy)-2-azabicyclo[2.2.1]heptan-2-yl)-2-methylbenzoic acid], in that order: 9.3, 132%, 100% and 1.26 nM.
For `O=C(O)c1cc(O[C@@H]2CCOC2)c2nc(N3C[C@@H]4C[C@H]3C[C@H]4OCc3c(-c4c(Cl)cccc4Cl)noc3C3CC3)sc2c1` [Compound I-261, 2-[(1S,4S,5R)-5-{[5-cyclopropyl-3-(2,6-dichlorophenyl)-1,2-oxazol-4-yl]methoxy}-2-azabicyclo[2.2.1]heptan-2-yl]-4-[(3R)-oxolan-3-yloxy]-1,3-benzothiazole-6-carboxylic Acid], in that order: 8.6, 161%, 110% and 0.398 nM.
